One experiment concerns the target T1, Xanthine Oxidase (XO) (Bos taurus, UniProt P80457).
T1 construct: purchased Sigma-Aldrich Co., LLC
In words: Xanthine oxidase activity inhibition test (XO/HRP double enzyme coupling, Ampliflu Red fluorescence). The format is biochemical. Conditions: 30 min preincubation and 30 min reaction at 30° C., pH 7.5; read-out: Xanthine oxidase inhibitor activity IC50. The procedure: A double enzyme coupling reaction of Xanthine Oxidase (XO) and Horseradish Peroxidase (HRP) and their substrates was used to test the activity inhibition of xanthine oxidase. First, xanthine oxidase oxidized hypoxanthine to produce xanthine and hydrogen peroxide, and further oxidized xanthine to produce uric acid and hydrogen peroxide. […] The fluorescence intensity of resorufin was determined by fluorescence enzyme spectrometer in direct proportion to xanthine oxidase activity.
In 96-well polypropylene reaction plate, the test compound was diluted into a 200-fold concentration of solution with DMSO through 2.5-fold serial dilution, and further diluted in ultra-pure water to obtain a series of 3-fold concentration of diluted solution.
Reaction solution A: 6 mU/mL xanthine oxidase solution was prepared in 0.1M Tris-HCl (pH7.5) buffer solution.
Reaction solution B: a mixture of 0.6 U/mL horseradish peroxidase solution, 0.15 mM Ampliflu Red and 0.3 mM hypoxanthine in 0.1M Tris-HCl (pH 7.5) buffer solution. The solution was protected from light at 4° C. and was prepared when it was ready for use.
9 μL reaction solution A was mixed with 3-fold concentration serial dilution solution of 9 μL test compound in a 96-well test plate, placed on a flat plate oscillator, and mixed at 30° C. at 100 rpm for 30 min. Then 9 μL reaction solution B was added. The enzyme reaction was carried out at 30° C. for 30 minutes. The fluorescence intensity at excitation light 530 nm and emission light 590 nm was measured by a microplate reader. The fluorescence intensity of the control without xanthine oxidase was 0%, and that of the control without the test compound was 100%.

Experiment [1] has as its system rats with hyperuricemia induced by potassium oxonate. Nature of the experiment: Treatment of hyperuricemia in rats induced by potassium oxonate, serum uric acid. Format: in vivo, SD rat. To be noted: for Uric acid 1 h: 1 h after potassium oxonate; for Uric acid 3 h: 3 h after potassium oxonate; for Uric acid 5 h: 5 h after potassium oxonate; for Uric acid 0 h: before potassium oxonate injection. Here is the method:
Compounds 15, 24 and 38 were white powder, and compound 57 was light yellow powder, which was ground with 0.5% CMC-Na before use and prepared into suspension with corresponding concentrations (0.2 and 0.4 mg/mL) for gavage.
SD rat, SPF grade, male, weighing 180-220 g, purchased from Shanghai Slake Experimental Animal Co., Ltd., production license number: SCXK (Hu) 2017-0005, quality certificate number: 20170005050604.
72 SD rats, male, weighed about 200-230 g after one week of acclimatization. […] Drugs for each group were prepared into suspension with corresponding concentration, and the administration volume was 0.5 mL/100 g.
After purchased and fed for acclimatization, the rats in each group were fasted for 12 h, and the model was established by intraperitoneal injection with potassium oxonate at the dose of 300 mg/kg, and each of the test drug groups were administrated once by gavage after model establishment. Blood samples were collected from posterior orbital venous plexus before and 1, 3 and 5 h after potassium oxonate injection, centrifugated at 3500 rpm for 10 min, and 30 μL serum was taken to determine uric acid levels at each time point.
Then in two consecutive days, rat models were established with potassium oxonate by intraperitoneal injection at a dose of 300 mg/kg every day, and each test drug group was administrated once by gavage after model establishment. On the third day of administration, the rats were fasted for 12 h, and with the same test method on the first day, blood samples were collected from the posterior orbital venous plexus before and 1, 3 and 5 h after potassium oxonate injection, centrifuged at 3500 rpm for 10 min, and 30 μL serum was taken to determine the uric acid level at each time point.
The measurement data of each experiment were expressed as (mean)±s (standard deviation). ANOVA-Dunnett T test was used to investigate the significance between groups, and P<0.05 was used as a significant index, P<0.01 was used as a very significant index.

The mark [2] stands for this setting: 1-day administration, 1 mg/kg gavage.
Setting [3] is: 1-day administration, 2 mg/kg gavage.
Setting [4] is: 1-day administration, 1 and 2 mg/kg groups, at 1, 3 and 5 h after model establishment.
Setting [5] is: 3-day administration, 1 mg/kg gavage.
Setting [6] is: 3-day administration, 2 mg/kg gavage.

T1 sequence (P80457 2-1332 limits assumed): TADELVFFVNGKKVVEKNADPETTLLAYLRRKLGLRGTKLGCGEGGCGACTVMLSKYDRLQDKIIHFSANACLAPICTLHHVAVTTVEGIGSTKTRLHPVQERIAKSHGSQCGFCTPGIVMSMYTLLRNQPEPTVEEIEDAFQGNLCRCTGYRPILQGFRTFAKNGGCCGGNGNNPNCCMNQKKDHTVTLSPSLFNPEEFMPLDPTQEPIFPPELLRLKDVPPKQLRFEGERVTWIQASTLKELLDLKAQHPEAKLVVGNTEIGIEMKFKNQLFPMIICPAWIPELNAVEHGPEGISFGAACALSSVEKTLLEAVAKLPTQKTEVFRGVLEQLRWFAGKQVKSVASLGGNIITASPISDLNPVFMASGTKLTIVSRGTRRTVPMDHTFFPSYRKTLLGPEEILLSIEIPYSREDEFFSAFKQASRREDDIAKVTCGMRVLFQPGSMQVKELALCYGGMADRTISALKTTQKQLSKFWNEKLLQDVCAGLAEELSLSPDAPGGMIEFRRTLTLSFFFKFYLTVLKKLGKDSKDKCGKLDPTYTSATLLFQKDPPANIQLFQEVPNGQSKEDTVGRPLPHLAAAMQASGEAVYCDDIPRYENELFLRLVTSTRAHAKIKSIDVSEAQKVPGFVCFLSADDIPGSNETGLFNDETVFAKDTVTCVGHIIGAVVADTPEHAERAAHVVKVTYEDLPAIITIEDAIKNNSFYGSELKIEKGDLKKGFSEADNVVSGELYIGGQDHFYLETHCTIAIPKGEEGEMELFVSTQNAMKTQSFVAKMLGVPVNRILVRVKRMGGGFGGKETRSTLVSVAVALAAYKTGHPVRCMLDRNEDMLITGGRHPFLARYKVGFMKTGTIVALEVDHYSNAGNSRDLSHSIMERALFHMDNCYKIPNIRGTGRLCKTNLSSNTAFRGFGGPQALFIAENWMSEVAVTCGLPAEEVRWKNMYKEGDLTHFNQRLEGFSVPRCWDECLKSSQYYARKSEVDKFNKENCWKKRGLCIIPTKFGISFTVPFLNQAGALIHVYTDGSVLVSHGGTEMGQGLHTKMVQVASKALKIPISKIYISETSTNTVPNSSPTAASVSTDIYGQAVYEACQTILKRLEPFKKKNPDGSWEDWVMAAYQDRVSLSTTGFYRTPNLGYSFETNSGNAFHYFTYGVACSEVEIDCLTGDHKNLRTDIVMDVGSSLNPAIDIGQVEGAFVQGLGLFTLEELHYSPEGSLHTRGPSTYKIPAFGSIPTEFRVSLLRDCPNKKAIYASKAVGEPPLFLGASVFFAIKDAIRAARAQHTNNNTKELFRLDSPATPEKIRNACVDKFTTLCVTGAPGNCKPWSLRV

The term IC50 denotes the concentration that inhibits the measured activity by half. `CC(C)n1nc(C#N)c2cc(-c3cc(C(=O)O)ccn3)ccc21` [Compound 57, 2-(3-cyano-1-isopropyl-1H-indazole-5-yl) isonicotinic acid]: the concentration for half-maximal inhibition (IC50) on Xanthine Oxidase (XO) turned out to be 2.89 nM. Also, the “Uric acid 1 h” value in experiment [1] (setting [2]) is 74.7 ± 11.3 µmol/L; in experiment [1] (setting [3]), 64.0 ± 13.5 µmol/L; in experiment [1] (setting [5]), 57.5 ± 9.3 µmol/L; in experiment [1] (setting [6]) it was 63.6 ± 11.7 µmol/L. Also, the “Uric acid 3 h” value turned out to be 99.5 ± 12.4 µmol/L in experiment [1] (setting [2]), 107.4 ± 12.5 µmol/L in experiment [1] (setting [3]), 75.3 ± 6.3 µmol/L in experiment [1] (setting [5]) and 75.2 ± 16.9 µmol/L in experiment [1] (setting [6]). The “Uric acid 5 h” value was determined as 85.7 ± 8.5 µmol/L in experiment [1] (setting [2]), 94.8 ± 6.4 µmol/L in experiment [1] (setting [3]), 90.0 ± 5.9 µmol/L in experiment [1] (setting [5]) and 81.1 ± 8.0 µmol/L in experiment [1] (setting [6]). Also, the “Uric acid 0 h” value in experiment [1] (setting [2]) was 71.2 ± 8.3 µmol/L; in experiment [1] (setting [3]), 74.5 ± 8.9 µmol/L; in experiment [1] (setting [5]) it was 70.8 ± 8.6 µmol/L; in experiment [1] (setting [6]), 72.7 ± 15.6 µmol/L. The “Serum uric acid level compared with model group” value in experiment [1] (setting [4]) is “significantly decreased”; in experiment [1] (3-day administration, 1 and 2 mg/kg groups, at 1 and 3 h after model establishment, P<0.01) it was “significantly decreased”.
For the compound `N#Cc1cn(CC2CC2)c2ccc(-n3ncc(C(=O)O)n3)cc12` [Compound 41, 2-(3-cyano-1-cyclopropylmethyl-1H-indole-5-yl)-2H-1,2,3-triazole-4-formic acid], the IC50 at Xanthine Oxidase (XO) was 1.72 nM.
Same read-out and setting: next, `N#Cc1nn(C2CC2)c2ccc(-n3cc(C(=O)O)cn3)cc12` [Compound 50, 1-(3-cyano-1-cyclopropyl-1H-indazole-5-yl)-1H-pyrazole-4-formic acid]: 9.89 nM.
On the same count and under the same terms, as for `CCCn1nc(C#N)c2cc(-n3cc(C(=O)O)cn3)ccc21` [Compound 35, 1-(3-cyano-1-propyl-1H-indazole-5-yl)-1H-pyrazole-4-formic acid], the figure is 11.8 nM.
Take `CC(C)n1nc(C#N)c2cc(-n3ncc(C(=O)O)n3)ccc21` [Compound 24, 2-(3-cyano-1-isopropyl-1H-indazole-5-yl)-2H-1,2,3-triazole-4-formic acid]: at Xanthine Oxidase (XO), the IC50 amounted to 3.65 nM. Also, the “Uric acid 1 h” value is 96.2 ± 9.3 µmol/L in experiment [1] (setting [2]), 96.8 ± 5.4 µmol/L in experiment [1] (setting [3]), 105.5 ± 12.7 µmol/L in experiment [1] (setting [5]) and 97.2 ± 27.5 µmol/L in experiment [1] (setting [6]). Further, the “Uric acid 3 h” value in experiment [1] (setting [2]) was determined as 131.0 ± 18.9 µmol/L; in experiment [1] (setting [3]) it was 126.4 ± 14.4 µmol/L; in experiment [1] (setting [5]), 155.3 ± 38.2 µmol/L; in experiment [1] (setting [6]) it was 104.0 ± 5.8 µmol/L. The “Uric acid 5 h” value amounted to 96.8 ± 13.6 µmol/L in experiment [1] (setting [2]), 105.1 ± 16.6 µmol/L in experiment [1] (setting [3]), 102.6 ± 8.3 µmol/L in experiment [1] (setting [5]) and 97.0 ± 14.6 µmol/L in experiment [1] (setting [6]). For the same compound, the “Uric acid 0 h” value amounted to 65.3 ± 5.8 µmol/L in experiment [1] (setting [2]), 77.6 ± 9.2 µmol/L in experiment [1] (setting [3]), 87.8 ± 16.2 µmol/L in experiment [1] (setting [5]) and 90.4 ± 9.1 µmol/L in experiment [1] (setting [6]). Also, the “Serum uric acid level compared with model group” value in experiment [1] (1-day administration, 1 and 2 mg/kg groups, at 1 h after model establishment, P<0.01) is “significantly decreased”; in experiment [1] (3-day administration, 2 mg/kg group, at 3 h after model establishment, P<0.01), “significantly decreased”.
Take `N#Cc1cn(C2CCC2)c2ccc(-n3ncc(C(=O)O)n3)cc12` [Compound 47, 2-(3-cyano-1-cyclobutyl-1H-indole-5-yl)-2H-1,2,3-triazole-4-formic acid]: on Xanthine Oxidase (XO), the IC50 was determined as 1.71 nM.
As for `CC(C)Cn1nc(C#N)c2cc(-n3cc(C(=O)O)cn3)ccc21` [Compound 32, 1-(3-cyano-1-isobutyl-1H-indazole-5-yl)-1H-pyrazole-4-formic acid], the IC50 on Xanthine Oxidase (XO) amounted to 5.11 nM.
`CC(C)n1nc(C#N)c2cc(-n3cc(C(=O)O)cn3)ccc21` [Compound 38, 1-(3-cyano-1-isopropyl-1H-indazole-5-yl)-1H-pyrazole-4-formic acid]: the concentration for half-maximal inhibition (IC50) at Xanthine Oxidase (XO) is 3.24 nM. For the same compound, the “Uric acid 1 h” value in experiment [1] (setting [2]) stood at 70.6 ± 7.7 µmol/L; in experiment [1] (setting [3]), 66.5 ± 7.5 µmol/L; in experiment [1] (setting [5]), 62.1 ± 14.1 µmol/L; in experiment [1] (setting [6]), 54.4 ± 5.1 µmol/L. Further, the “Uric acid 3 h” value in experiment [1] (setting [2]) was found to be 74.6 ± 19.6 µmol/L; in experiment [1] (setting [3]) it was 77.4 ± 9.2 µmol/L; in experiment [1] (setting [5]) it was 69.4 ± 16.1 µmol/L; in experiment [1] (setting [6]), 73.1 ± 9.4 µmol/L. Besides, the “Uric acid 5 h” value in experiment [1] (setting [2]) came to 64.3 ± 10.6 µmol/L; in experiment [1] (setting [3]), 56.8 ± 4.0 µmol/L; in experiment [1] (setting [5]), 55.1 ± 5.8 µmol/L; in experiment [1] (setting [6]), 58.1 ± 9.6 µmol/L. Besides, the “Uric acid 0 h” value came to 75.6 ± 6.8 µmol/L in experiment [1] (setting [2]), 73.1 ± 6.7 µmol/L in experiment [1] (setting [3]), 61.0 ± 5.7 µmol/L in experiment [1] (setting [5]) and 60.9 ± 8.1 µmol/L in experiment [1] (setting [6]). Further, the “Serum uric acid level compared with model group” value in experiment [1] (setting [4]) is “significantly decreased”; in experiment [1] (3-day administration, 1 and 2 mg/kg groups, at 1, 3 and 5 h after model establishment), “significantly decreased”.
Consider `CC(C)n1cc(C#N)c2cc(-n3ncc(C(=O)O)n3)ccc21` [Compound 15, 2-(3-cyano-1-isopropyl-1H-indole-5-yl)-2H-1,2,3-triazole-4-formic acid], for which the IC50 on Xanthine Oxidase (XO) amounted to 1.84 nM. Moreover, in experiment [1] (setting [2]), the “Uric acid 1 h” value turned out to be 104.3 ± 20.3 µmol/L, the “Uric acid 3 h” value worked out at 121.6 ± 12.2 µmol/L, the “Uric acid 5 h” value turned out to be 118.4 ± 15.3 µmol/L and the “Uric acid 0 h” value was determined as 72.0 ± 6.7 µmol/L. For the same compound, in experiment [1] (setting [3]), the “Uric acid 1 h” value is 98.1 ± 6.3 µmol/L, the “Uric acid 3 h” value was 130.7 ± 11.5 µmol/L, the “Uric acid 5 h” value is 109.7 ± 22.5 µmol/L and the “Uric acid 0 h” value is 74.1 ± 10.3 µmol/L. In experiment [1] (1-day administration, 2 mg/kg group, at 1 h after model establishment, P<0.01), the “Serum uric acid level compared with model group” value is on record as “significantly decreased”. In experiment [1] (setting [5]), the “Uric acid 1 h” value was determined as 78.4 ± 12.1 µmol/L, the “Uric acid 3 h” value was found to be 166.1 ± 37.5 µmol/L, the “Uric acid 5 h” value was 100.0 ± 12.5 µmol/L and the “Uric acid 0 h” value was 70.9 ± 12.8 µmol/L. For the same compound, in experiment [1] (setting [6]), the “Uric acid 1 h” value was determined as 88.2 ± 21.3 µmol/L, the “Uric acid 3 h” value was determined as 139.8 ± 32.7 µmol/L, the “Uric acid 5 h” value amounted to 97.6 ± 21.0 µmol/L and the “Uric acid 0 h” value was found to be 64.1 ± 4.8 µmol/L.
On to `CC(C)n1nc(C#N)c2cc(-c3ccc(C(=O)O)s3)ccc21` [Compound 28, 2-(3-cyano-1-isopropyl-1H-indazole-5-yl)thiophen-2-formic acid], for which the IC50 on Xanthine Oxidase (XO) is 7.91 nM.
Still for that read-out and setting: next, `N#Cc1cn(C2CCOC2)c2ccc(-n3ncc(C(=O)O)n3)cc12` (stereo not shown) [Compound 44, 2-[3-cyano-1-(tetrahydrofuran-3-yl)-1H-indole-5-yl]-2H-1,2,3-triazole-4-formic acid]: 9.58 nM.

Source of the values: patent US20240262808A1, “XANTHINE OXIDASE INHIBITOR” (JIANGSU ATOM BIOSCIENCE AND PHARMACEUTICAL CO., LTD., priority 2021, published 2024).
